Where two headings read alike, the source gives them in different places.
Experiment: Effect of food on plasma pharmacokinetics after single oral dose of SF2a/b (Example 2)
Type: in vivo, human
Details: for AUC(0-t) / AUC(0-inf) / Cmax / half-life / Tmax: both sexes, human, plasma, oral; for Tmax: read-out: tmax, Median
Procedure: The effect of food on the pharmacokinetics (PK) of Compound (a) was assessed in healthy participants after a single oral dose of SF2a/b, described in Example 1, administered at different dose levels in a randomized single dose, 2-period crossover study. The effect of food on the PK of Compound (a) was determined at 3 different dose levels (50 mg, 200 mg, and 800 mg) for a standardized breakfast; at one dose level (800 mg) for a high-fat, high-calorie breakfast; at two dose levels (200 mg and 800 mg) for a low-fat, low-calorie breakfast, as well as for a low-fat, high-calorie breakfast. 124 healthy adult participants (male and female, 18 to 55 years of age) were enrolled in this study. The volunteers were divided in six panels, which were organized as follows: • Panel […]: • Treatment D: A single 800-mg dose (4×200-mg tablets) of Compound (a) SF2b in fasted conditions. • Treatment E: A single 800-mg dose (4×200-mg tablets) of Compound (a) SF2b in fed conditions (standardized breakfast). • Treatments D and E (treatment sequence group 1 [n=8]: DE; treatment sequence group 2 [n=8]: ED). Panel 4, n=14: • Treatment F: A single 200-mg dose (1×200-mg tablet) of Compound (a) SF2b in fasted conditions. • Treatment G: A single 200-mg dose (1×200-mg tablet) of Compound (a) SF2b, in fed conditions (standardized breakfast). • Treatments F and G (treatment sequence group 1 [n=7]: FG; treatment sequence group 2 [n=7]: GF). Panel […]: • Treatment H: A single 50-mg dose (1×50-mg tablet) of Compound (a) SF2a in fasted conditions. • Treatment I: A single 50-mg dose (1×50-mg tablet) of Compound (a) SF2a in fed conditions (standardized breakfast). • Treatments H and I (treatment sequence group 1 [n=7]: HI; treatment sequence group 2 [n=7]: IH). Panel 6 (n=16): • Treatment J: single 800-mg dose (4×200-mg tablets) of Compound (a) administered as SF2b in fasted conditions. • Treatment K: single 800-mg dose (4×200-mg tablets) of Compound (a) administered as SF2b in fed conditions (high-fat, high-calorie breakfast). • Treatments J and K (treatment sequence group 1 [n=8]: JK; treatment sequence group 2 [n=8]: KJ). Panel 7 (n=32): • Treatment L: single 800-mg dose (4×200-mg tablets) of Compound (a) administered as SF2b in fed conditions (low-fat, low-calorie breakfast). • Treatment M: single 800-mg dose (4×200-mg tablets) of Compound (a) administered as SF2b in fed conditions (low-fat, high-calorie breakfast). • Treatment L (n=16) or Treatment M (n=16). Panel 8 (n=32): • Treatment N: single 200-mg dose (1×200-mg tablet) of Compound (a) administered as SF2b in fed conditions (low-fat, low-calorie breakfast). • Treatment O: single 200-mg dose (1×200-mg tablet) of Compound (a) administered as SF2b in fed conditions (low-fat, high-calorie breakfast). • Treatment N (n=16) or Treatment O (n=16). Tablets were administered orally, together with approximately 240 mL of non-carbonated water, in fasted or fed conditions. […] On day 1 of all treatments in each panel, the participants had fasted overnight for at least 10 hours before study drug intake. Intake of water was not allowed from 2 hours before and until 2 hours after study drug intake, except for the water used for study drug intake and breakfast. In case of intake in fed conditions, study drug was administered within 10 minutes after completing a standardized breakfast (Treatments E, G, and I), or a high-fat, high-calorie breakfast (Treatment K), a low-fat, low-calorie breakfast (Treatments L and N), or a low-fat, high-calorie breakfast (Treatments M and O). For treatments E, G, and I a standardized breakfast was served, consisting of (or its equivalent) 4 slices of bread, 2 slices of ham or cheese, butter, jelly, and 1 or 2 cups (up to 355 mL) of decaffeinated coffee or tea with milk and/or sugar, if desired (containing approximately: fat: 21 g, carbohydrates: 67 g, proteins: 19 g; total calories: 533 kcal). For treatment K in a high-fat, high-calorie breakfast was served. […]

[1] = 50 mg SF2a, standardized breakfast vs fasted
[2] = 200 mg SF2b, low-fat, high-calorie vs standardized breakfast
[3] = 200 mg SF2b, low-fat, low-calorie vs standardized breakfast
[4] = 200 mg SF2b, standardized breakfast vs fasted
[5] = 800 mg SF2b, high-fat, high-calorie breakfast vs fasted
[6] = 800 mg SF2b, low-fat, high-calorie vs standardized breakfast
[7] = 800 mg SF2b, low-fat, low-calorie vs standardized breakfast
[8] = 800 mg SF2b, standardized breakfast vs fasted

COc1cc(NC(C(=O)c2c[nH]c3ccc(OC(F)(F)F)cc23)c2ccc(Cl)cc2OC)cc(S(C)(=O)=O)c1 (centres unmarked) [Compound (a)]
AUClast, Geometric Mean Ratio Treatment I vs Treatment H [1]: 120.38%
AUC∞, Geometric Mean Ratio Treatment I vs Treatment H [1]: 121.24%
Cmax, Geometric Mean Ratio Treatment I vs Treatment H [1]: 132.83%
AUClast, Geometric Mean Ratio Treatment O vs Treatment G [2]: 66.47%
AUC∞, Geometric Mean Ratio Treatment O vs Treatment G [2]: 67.23%
Cmax, Geometric Mean Ratio Treatment O vs Treatment G [2]: 72.81%
AUClast, Geometric Mean Ratio Treatment N vs Treatment G [3]: 73.28%
AUC∞, Geometric Mean Ratio Treatment N vs Treatment G [3]: 73.61%
Cmax, Geometric Mean Ratio Treatment N vs Treatment G [3]: 72.54%
AUClast, Geometric Mean Ratio Treatment G vs Treatment F [4]: 168.45%
AUC∞, Geometric Mean Ratio Treatment G vs Treatment F [4]: 172.00%
Cmax, Geometric Mean Ratio Treatment G vs Treatment F [4]: 176.07%
AUClast, Geometric Mean Ratio Treatment K vs Treatment J [5]: 391.52%
AUC∞, Geometric Mean Ratio Treatment K vs Treatment J [5]: 384.08%
Cmax, Geometric Mean Ratio Treatment K vs Treatment J [5]: 409.01%
AUClast, Geometric Mean Ratio Treatment M vs Treatment E [6]: 65.27%
AUC∞, Geometric Mean Ratio Treatment M vs Treatment E [6]: 69.35%
Cmax, Geometric Mean Ratio Treatment M vs Treatment E [6]: 60.73%
AUClast, Geometric Mean Ratio Treatment L vs Treatment E [7]: 60.37%
AUC∞, Geometric Mean Ratio Treatment L vs Treatment E [7]: 64.71%
Cmax, Geometric Mean Ratio Treatment L vs Treatment E [7]: 60.56%
AUClast, Geometric Mean Ratio Treatment E vs Treatment D [8]: 241.23%
AUC∞, Geometric Mean Ratio Treatment E vs Treatment D [8]: 238.11%
Cmax, Geometric Mean Ratio Treatment E vs Treatment D [8]: 277.77%
relative bioavailability for AUClast, standardized breakfast compared to fasted (SF2a/b, 50 mg dose): 124%
relative bioavailability for Cmax, standardized breakfast compared to fasted (SF2a/b, 50 mg dose): 133%
relative bioavailability for AUClast, standardized breakfast compared to fasted (SF2a/b, 800 mg dose): 243%
relative bioavailability for Cmax, standardized breakfast compared to fasted (SF2a/b, 800 mg dose): 278%
exposure, high-fat, high-calorie breakfast compared to fasted conditions (SF2a/b, single dose 800 mg): approximately 4 times higher
tlast, Median (Treatment D: single 800 mg (SF2b), fasted): 840.00 h
tlast, Median (Treatment E: single 800 mg (SF2b), fed, standardized breakfast): 840.00 h
tlast, Median (Treatment F: single 200 mg (SF2b), fasted): 840.00 h
tlast, Median (Treatment G: single 200 mg (SF2b), fed, standardized breakfast): 840.00 h
tlast, Median (Treatment H: single 50 mg (SF2a), fasted): 840.00 h
tlast, Median (Treatment I: single 50 mg (SF2a), fed, standardized breakfast): 840.00 h
AUC(0-t) (50 mg, 50 mg SF2a, fasted, linear mixed effects model (Table 5C), read-out: AUClast, Geometric Mean Treatment H): 17900 ng·h/mL
AUC(0-inf) (50 mg, 50 mg SF2a, fasted, linear mixed effects model (Table 5C), read-out: AUC∞, Geometric Mean Treatment H): 18700 ng·h/mL
Cmax (50 mg, 50 mg SF2a, fasted, linear mixed effects model (Table 5C), read-out: Cmax, Geometric Mean Treatment H): 193 ng/mL
AUC(0-t) (50 mg, 50 mg SF2a, standardized breakfast, linear mixed effects model (Table 5C), read-out: AUClast, Geometric Mean Treatment I): 21600 ng·h/mL
AUC(0-inf) (50 mg, 50 mg SF2a, standardized breakfast, linear mixed effects model (Table 5C), read-out: AUC∞, Geometric Mean Treatment I): 22700 ng·h/mL
Cmax (50 mg, 50 mg SF2a, standardized breakfast, linear mixed effects model (Table 5C), read-out: Cmax, Geometric Mean Treatment I): 257 ng/mL
AUC(0-t) (50 mg, Treatment H: single 50 mg (SF2a), fasted, read-out: AUClast, Geo. Mean): 18000 ng·h/mL
AUC(0-t) (50 mg, Treatment H: single 50 mg (SF2a), fasted, read-out: AUClast, Mean): 19900 ng·h/mL
AUC(0-t) (50 mg, Treatment H: single 50 mg (SF2a), fasted, read-out: AUClast, Median): 18500 ng·h/mL
AUC(0-inf) (50 mg, Treatment H: single 50 mg (SF2a), fasted, read-out: AUC∞, Geo. Mean): 18800 ng·h/mL
AUC(0-inf) (50 mg, Treatment H: single 50 mg (SF2a), fasted, read-out: AUC∞, Mean): 21000 ng·h/mL
AUC(0-inf) (50 mg, Treatment H: single 50 mg (SF2a), fasted, read-out: AUC∞, Median): 18800 ng·h/mL
Cmax (50 mg, Treatment H: single 50 mg (SF2a), fasted, read-out: Cmax, Geo. Mean): 195 ng/mL
Cmax (50 mg, Treatment H: single 50 mg (SF2a), fasted, read-out: Cmax, Mean): 214 ng/mL
Cmax (50 mg, Treatment H: single 50 mg (SF2a), fasted, read-out: Cmax, Median): 208 ng/mL
half-life (50 mg, Treatment H: single 50 mg (SF2a), fasted, read-out: t1/2, term, Geo. Mean (converted)): 167 h
half-life (50 mg, Treatment H: single 50 mg (SF2a), fasted, read-out: t1/2, term, Mean (converted)): 176 h
half-life (50 mg, Treatment H: single 50 mg (SF2a), fasted, read-out: t1/2, term, Median (converted)): 162 h
Tmax (50 mg, Treatment H: single 50 mg (SF2a), fasted): 7 h
AUC(0-t) (50 mg, Treatment I: single 50 mg (SF2a), fed, standardized breakfast, read-out: AUClast, Geo. Mean): 21100 ng·h/mL
AUC(0-t) (50 mg, Treatment I: single 50 mg (SF2a), fed, standardized breakfast, read-out: AUClast, Mean): 22900 ng·h/mL
AUC(0-t) (50 mg, Treatment I: single 50 mg (SF2a), fed, standardized breakfast, read-out: AUClast, Median): 20400 ng·h/mL
AUC(0-inf) (50 mg, Treatment I: single 50 mg (SF2a), fed, standardized breakfast, read-out: AUC∞, Geo. Mean): 22100 ng·h/mL
AUC(0-inf) (50 mg, Treatment I: single 50 mg (SF2a), fed, standardized breakfast, read-out: AUC∞, Mean): 24600 ng·h/mL
AUC(0-inf) (50 mg, Treatment I: single 50 mg (SF2a), fed, standardized breakfast, read-out: AUC∞, Median): 20800 ng·h/mL
Cmax (50 mg, Treatment I: single 50 mg (SF2a), fed, standardized breakfast, read-out: Cmax, Geo. Mean): 257 ng/mL
Cmax (50 mg, Treatment I: single 50 mg (SF2a), fed, standardized breakfast, read-out: Cmax, Mean): 288 ng/mL
Cmax (50 mg, Treatment I: single 50 mg (SF2a), fed, standardized breakfast, read-out: Cmax, Median): 267 ng/mL
half-life (50 mg, Treatment I: single 50 mg (SF2a), fed, standardized breakfast, read-out: t1/2, term, Geo. Mean (converted)): 174 h
half-life (50 mg, Treatment I: single 50 mg (SF2a), fed, standardized breakfast, read-out: t1/2, term, Mean (converted)): 185 h
half-life (50 mg, Treatment I: single 50 mg (SF2a), fed, standardized breakfast, read-out: t1/2, term, Median (converted)): 159 h
Tmax (50 mg, Treatment I: single 50 mg (SF2a), fed, standardized breakfast): 6.5 h
AUC(0-t) (200 mg, 200 mg SF2b, fasted, linear mixed effects model (Table 5B), read-out: AUClast, Geometric Mean Treatment F): 60500 ng·h/mL
AUC(0-inf) (200 mg, 200 mg SF2b, fasted, linear mixed effects model (Table 5B), read-out: AUC∞, Geometric Mean Treatment F): 60500 ng·h/mL
Cmax (200 mg, 200 mg SF2b, fasted, linear mixed effects model (Table 5B), read-out: Cmax, Geometric Mean Treatment F): 559 ng/mL
AUC(0-t) (200 mg, 200 mg SF2b, fed, low-fat, high-calorie breakfast, read-out: AUClast, Geometric LS Means Treatment O): 65200 ng·h/mL
AUC(0-inf) (200 mg, 200 mg SF2b, fed, low-fat, high-calorie breakfast, read-out: AUC∞, Geometric LS Means Treatment O): 69300 ng·h/mL
Cmax (200 mg, 200 mg SF2b, fed, low-fat, high-calorie breakfast, read-out: Cmax, Geometric LS Means Treatment O): 700 ng/mL
AUC(0-t) (200 mg, 200 mg SF2b, fed, low-fat, low-calorie breakfast, read-out: AUClast, Geometric LS Means Treatment N): 71900 ng·h/mL
AUC(0-inf) (200 mg, 200 mg SF2b, fed, low-fat, low-calorie breakfast, read-out: AUC∞, Geometric LS Means Treatment N): 75800 ng·h/mL
Cmax (200 mg, 200 mg SF2b, fed, low-fat, low-calorie breakfast, read-out: Cmax, Geometric LS Means Treatment N): 697 ng/mL
AUC(0-t) (200 mg, 200 mg SF2b, fed, standardized breakfast (Tables 5E, 5G), read-out: AUClast, Geometric LS Means Treatment G): 98200 ng·h/mL

From patent publication US20250281457A1, “TREATMENT OR PREVENTION OF DENGUE VIRAL INFECTION” (Janssen Pharmaceuticals, Inc., priority 2022, published 2025)
